What was measured:
[1] = target: D(2) dopamine receptor (Homo sapiens, UniProt P14416); experiment: Binding affinity to dopamine D2 receptor (unknown origin) by radioligand binding assay
[2] = target: 5-hydroxytryptamine receptor 7 (Homo sapiens, UniProt P34969); experiment: Binding affinity to 5HT7 receptor (unknown origin) by radioligand binding assay
[3] = target: T1, Adrenergic receptor alpha-1 (Homo sapiens, UniProt P35348+P25100+P35368); experiment: Binding affinity to adrenergic alpha1 receptor (unknown origin) by radioligand binding assay
T1 sequence (P35348 whole entry): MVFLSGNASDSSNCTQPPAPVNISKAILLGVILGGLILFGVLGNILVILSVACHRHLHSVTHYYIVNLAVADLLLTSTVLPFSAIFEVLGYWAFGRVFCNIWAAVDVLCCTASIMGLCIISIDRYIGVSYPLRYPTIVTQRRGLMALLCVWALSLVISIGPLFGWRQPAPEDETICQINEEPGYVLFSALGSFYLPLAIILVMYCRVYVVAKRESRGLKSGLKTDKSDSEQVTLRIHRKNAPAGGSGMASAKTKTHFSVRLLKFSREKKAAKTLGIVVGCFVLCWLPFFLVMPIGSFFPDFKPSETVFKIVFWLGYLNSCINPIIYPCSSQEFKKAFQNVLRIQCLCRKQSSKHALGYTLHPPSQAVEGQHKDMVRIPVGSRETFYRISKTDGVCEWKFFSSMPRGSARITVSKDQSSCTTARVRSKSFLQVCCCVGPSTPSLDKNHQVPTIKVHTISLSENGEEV
T1 sequence (P25100 whole entry): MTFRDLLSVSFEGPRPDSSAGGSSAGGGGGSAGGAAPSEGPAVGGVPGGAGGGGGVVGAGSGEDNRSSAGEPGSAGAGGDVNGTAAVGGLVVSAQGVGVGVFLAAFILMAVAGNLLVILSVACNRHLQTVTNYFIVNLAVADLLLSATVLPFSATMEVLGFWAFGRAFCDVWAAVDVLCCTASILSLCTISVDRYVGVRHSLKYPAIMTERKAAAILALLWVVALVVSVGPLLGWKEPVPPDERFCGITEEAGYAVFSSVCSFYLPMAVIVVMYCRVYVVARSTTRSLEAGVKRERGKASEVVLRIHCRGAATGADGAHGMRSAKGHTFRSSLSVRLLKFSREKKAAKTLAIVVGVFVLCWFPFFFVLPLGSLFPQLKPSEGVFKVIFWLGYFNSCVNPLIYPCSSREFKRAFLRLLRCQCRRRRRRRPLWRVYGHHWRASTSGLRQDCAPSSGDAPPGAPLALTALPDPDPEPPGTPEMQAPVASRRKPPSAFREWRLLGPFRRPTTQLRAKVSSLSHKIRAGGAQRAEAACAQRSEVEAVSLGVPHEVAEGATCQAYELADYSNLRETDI
T1 sequence (P35368 whole entry): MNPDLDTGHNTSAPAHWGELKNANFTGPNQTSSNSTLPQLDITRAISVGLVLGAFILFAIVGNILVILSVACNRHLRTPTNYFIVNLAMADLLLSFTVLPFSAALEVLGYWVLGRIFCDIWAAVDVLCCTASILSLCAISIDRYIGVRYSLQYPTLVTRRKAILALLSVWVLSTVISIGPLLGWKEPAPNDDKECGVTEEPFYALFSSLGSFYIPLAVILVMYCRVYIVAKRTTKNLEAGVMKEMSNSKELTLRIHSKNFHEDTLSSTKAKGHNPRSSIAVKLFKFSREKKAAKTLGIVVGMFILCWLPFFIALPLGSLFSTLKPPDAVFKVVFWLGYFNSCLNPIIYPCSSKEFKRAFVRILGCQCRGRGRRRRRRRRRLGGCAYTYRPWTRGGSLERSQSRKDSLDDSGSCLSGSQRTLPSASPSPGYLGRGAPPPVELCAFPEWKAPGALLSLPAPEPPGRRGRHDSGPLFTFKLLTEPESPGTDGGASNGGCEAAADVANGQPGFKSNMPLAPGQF

Chain of D(2) dopamine receptor (P14416 whole entry): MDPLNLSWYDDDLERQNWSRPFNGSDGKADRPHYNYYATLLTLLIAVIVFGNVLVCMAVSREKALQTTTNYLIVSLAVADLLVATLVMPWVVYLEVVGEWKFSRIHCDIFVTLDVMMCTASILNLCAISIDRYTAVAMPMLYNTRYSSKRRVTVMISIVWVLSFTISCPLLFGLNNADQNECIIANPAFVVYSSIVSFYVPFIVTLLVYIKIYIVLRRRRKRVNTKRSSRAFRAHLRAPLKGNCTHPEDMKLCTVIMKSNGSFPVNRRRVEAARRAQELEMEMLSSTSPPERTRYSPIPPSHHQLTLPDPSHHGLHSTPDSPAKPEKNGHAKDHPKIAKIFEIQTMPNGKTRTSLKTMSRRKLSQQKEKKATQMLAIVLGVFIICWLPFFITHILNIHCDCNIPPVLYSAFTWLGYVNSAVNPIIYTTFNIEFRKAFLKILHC
Chain of 5-hydroxytryptamine receptor 7 (P34969 whole entry): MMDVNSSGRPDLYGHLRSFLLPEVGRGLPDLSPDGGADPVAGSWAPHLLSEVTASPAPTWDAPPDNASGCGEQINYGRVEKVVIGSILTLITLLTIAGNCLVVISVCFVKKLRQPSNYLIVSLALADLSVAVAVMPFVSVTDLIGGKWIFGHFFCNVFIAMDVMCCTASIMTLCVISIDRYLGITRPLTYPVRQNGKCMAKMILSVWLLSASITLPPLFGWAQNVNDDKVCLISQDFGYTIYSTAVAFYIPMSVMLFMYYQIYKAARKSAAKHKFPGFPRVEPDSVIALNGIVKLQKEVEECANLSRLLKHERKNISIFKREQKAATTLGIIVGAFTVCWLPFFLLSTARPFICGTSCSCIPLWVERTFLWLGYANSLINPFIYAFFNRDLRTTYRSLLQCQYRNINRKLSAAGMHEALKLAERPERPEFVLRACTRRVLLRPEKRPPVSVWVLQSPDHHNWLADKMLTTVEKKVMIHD

CN(C)CCCN1c2ccccc2CCc2ccccc21 [IMIPRAMINE]
IC50 [1]: 410 nM

CC(CN1c2ccccc2Sc2ccccc21)N(C)C (centres undefined) [PROMETHAZINE]
IC50 [1]: 100 nM

O=C1Cc2cc(CCN3CCN(c4nsc5ccccc45)CC3)c(Cl)cc2N1 [ZIPRASIDONE]
Ki [2]: 6 nM
Ki [3]: 11 nM
